Assays:
[1] = test system: Amaranthus tamariscinus (AMATA, common waterhemp), PPO resistant biotype 3 confirmed to contain the ΔG210 mutation (w.4); assay: greenhouse herbicidal activity test, weed w.4; format: in vivo; conditions: PPO resistant biotype 3 (ΔG210), scale 0 to 100
Excerpt: (§1) The culture containers used were plastic flowerpots containing loamy sand with approximately 3.0% of humus as the substrate. The seeds of the test plants were sown separately for each species and/or resistant biotype. For the pre-emergence treatment, the active ingredients, which had been suspended or emulsified in water, were applied directly after sowing by means of finely distributing nozzles. The containers were irrigated gently to promote germination and growth and subsequently covered with transparent plastic hoods until the plants had rooted. This cover caused uniform germination of the test plants, unless this had been impaired by the active ingredients. For the post-emergence treatment, the test plants were first grown to a height of 3 to 15 cm, depending on the plant habit, and only then treated with the active ingredients which had been suspended or emulsified in water. For this purpose, the test plants were either sown directly and grown in the same containers, or they were first grown separately as seedlings and transplanted into the test containers a few days prior to treatment. Depending on the species, the plants were kept at 10-25° C. or 20-35° C., respectively. The test period extended over 2 to 4 weeks. During this time, the plants were tended, and their response to the individual treatments was evaluated. The evaluation was carried out by using a scale from 0 to 100. […]

[2] = test system: Amaranthus tamariscinus (AMATA, common waterhemp), PPO resistant biotype 2 (w.3); assay: greenhouse herbicidal activity test, weed w.3; format: in vivo; conditions: scale 0 to 100
Excerpt: as §1

[3] = test system: Amaranthus tamariscinus (AMATA, common waterhemp), PPO resistant biotype 1 (w.2); assay: greenhouse herbicidal activity test, weed w.2; format: in vivo; conditions: scale 0 to 100
Excerpt: as §1

[4] = test system: Amaranthus tamariscinus (AMATA, common waterhemp), PPO resistant biotype 4 confirmed to contain the ΔG210 mutation (w.5); assay: greenhouse herbicidal activity test, weed w.5; format: in vivo; conditions: PPO resistant biotype 4 (ΔG210), scale 0 to 100
Excerpt: as §1

[5] = test system: Amaranthus tamariscinus (AMATA, common waterhemp), Sensitive biotype (w.1); assay: greenhouse herbicidal activity test, weed w.1; format: in vivo; conditions: scale 0 (no damage) to 100 (complete destruction)
Excerpt: as §1

[6] = test system: sensitive (w.1) and resistant weeds (w.2 to w.5); assay: greenhouse herbicidal activity test, summary over all biotypes; format: in vivo, Amaranthus tamariscinus; conditions: w.1 to w.5, including those shown to contain the ΔG210 mutation
Excerpt: as §1

## C=CCOC(=O)C(C)(C)OC(=O)c1cc(-n2c(=O)cc(C(F)(F)F)n(C)c2=O)ccc1Cl [(I).1, butafenacil]
[1]; use rate 4 g/ha
  Weed control (%) w.4: 80%
[1]; use rate 8 g/ha
  Weed control (%) w.4: 85%
[2]; use rate 4 g/ha
  Weed control (%) w.3: 100%
[2]; use rate 8 g/ha
  Weed control (%) w.3: 100%
[3]; use rate 4 g/ha
  Weed control (%) w.2: 100%
[3]; use rate 8 g/ha
  Weed control (%) w.2: 100%
[4]; use rate 4 g/ha
  Weed control (%) w.5: 80%
[4]; use rate 8 g/ha
  Weed control (%) w.5: 83%
[5]; use rate 4 g/ha
  Weed control (%) w.1: 100%
[5]; use rate 8 g/ha
  Weed control (%) w.1: 100%
[6]
  activity on sensitive and resistant weeds (in words): very good activity
